Source: ChEMBL document CHEMBL1201862, “PubChem BioAssay data set” (2004)
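Exposure lasted 48 hours, with cells grown in 96-well plates and compounds tested at five concentrations. GI50 is the concentration that inhibits growth by half.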 Activity calls are given as the source filed them. Cut-off read from the data, not from the text of the source: active = GI50 up to about 1.1 µM and inactive = higher.

What was measured:
Assay in all cases: NCI anticancer screen, dose series, 48 h
786-0 = test system: 786-0
A498 = test system: A498
A549 = test system: A549
ACHN = test system: ACHN
CAKI-1 = test system: CAKI-1
CCRF-CEM = test system: CCRF-CEM
COLO 205 = test system: COLO 205
DU-145 = test system: DU-145
EKVX = test system: EKVX
HCC 2998 = test system: HCC 2998
HCT-116 = test system: HCT-116
HCT-15 = test system: HCT-15
HL-60 = test system: HL-60
HOP-62 = test system: HOP-62
HOP-92 = test system: HOP-92
HT-29 = test system: HT-29
IGROV-1 = test system: IGROV-1
K562 = test system: K562
KM12 = test system: KM12
LOX IMVI = test system: LOX IMVI
M14 = test system: M14
MCF7 = test system: MCF7
MDA-MB-231 = test system: MDA-MB-231
MDA-MB-435 = test system: MDA-MB-435
MDA-N = test system: MDA-N
MOLT-4 = test system: MOLT-4
Malme-3M = test system: Malme-3M
NCI-H226 = test system: NCI-H226
NCI-H23 = test system: NCI-H23
NCI-H460 = test system: NCI-H460
NCI-H522 = test system: NCI-H522
NCI/ADR-RES = test system: NCI/ADR-RES
OVCAR-3 = test system: OVCAR-3
OVCAR-4 = test system: OVCAR-4
OVCAR-5 = test system: OVCAR-5
OVCAR-8 = test system: OVCAR-8
PC-3 = test system: PC-3
RPMI-8226 = test system: RPMI-8226
RXF 393 = test system: RXF 393
SF-268 = test system: SF-268
SF-295 = test system: SF-295
SF-539 = test system: SF-539
SK-MEL-28 = test system: SK-MEL-28
SK-MEL-2 = test system: SK-MEL-2
SK-MEL-5 = test system: SK-MEL-5
SK-OV-3 = test system: SK-OV-3
SN12C = test system: SN12C
SNB-19 = test system: SNB-19
SNB-75 = test system: SNB-75
SW-620 = test system: SW-620
T47D = test system: T47D
TK-10 = test system: TK-10
U-251 = test system: U-251
UACC-257 = test system: UACC-257
UACC-62 = test system: UACC-62
UO-31 = test system: UO-31
Hs-578T = test system: Hs-578T
SR = test system: SR

What does the source list for `c1cc2c(cc1[C@@H]1OC[C@@H]3[C@H]1CO[C@H]3c1ccc3c(c1)OCO3)OCO2`?
GI50 (786-0): > 100 µM (inactive); GI50 (A498): > 100 µM (inactive); GI50 (A549): 62.2 µM (inactive); GI50 (ACHN): > 100 µM (inactive); GI50 (CAKI-1): 30.1 µM (inactive); GI50 (CCRF-CEM): 44.8 µM (inactive); GI50 (COLO 205): > 100 µM (inactive); GI50 (DU-145): > 100 µM (inactive); GI50 (EKVX): 29.7 µM (inactive); GI50 (HCC 2998): > 100 µM (inactive); GI50 (HCT-116): 26.9 µM (inactive); GI50 (HCT-15): > 100 µM; GI50 (HL-60): 44 µM (inactive); GI50 (HOP-62): > 100 µM (inactive); GI50 (HOP-92): 69.3 µM (inactive); GI50 (HT-29): 60.8 µM (inactive); GI50 (IGROV-1): 87.1 µM (inactive); GI50 (K562): 46.8 µM (inactive); GI50 (KM12): 23.1 µM (inactive); GI50 (LOX IMVI): 36.2 µM (inactive); GI50 (M14): 62.8 µM (inactive); GI50 (MCF7): 34.9 µM (inactive); GI50 (MDA-MB-231): 94 µM (inactive); GI50 (MDA-MB-435): 54.2 µM (inactive); GI50 (MDA-N): 80.9 µM (inactive); GI50 (MOLT-4): 28.4 µM (inactive); GI50 (Malme-3M): 53.3 µM (inactive); GI50 (NCI-H226): > 100 µM (inactive); GI50 (NCI-H23): 65.9 µM (inactive); GI50 (NCI-H460): > 100 µM (inactive); GI50 (NCI-H522): > 100 µM (inactive); GI50 (NCI/ADR-RES): 36.6 µM (inactive); GI50 (OVCAR-3): 43.5 µM (inactive); GI50 (OVCAR-4): > 100 µM (inactive); GI50 (OVCAR-5): > 100 µM (inactive); GI50 (OVCAR-8): > 100 µM (inactive); GI50 (PC-3): 51.4 µM (inactive); GI50 (RPMI-8226): 46.3 µM (inactive); GI50 (RXF 393): 20.8 µM (inactive); GI50 (SF-268): > 100 µM (inactive); GI50 (SF-295): > 100 µM (inactive); GI50 (SF-539): > 100 µM (inactive); GI50 (SK-MEL-28): > 100 µM (inactive); GI50 (SK-MEL-2): > 100 µM (inactive); GI50 (SK-MEL-5): 16 µM (inactive); GI50 (SK-OV-3): > 100 µM (inactive); GI50 (SN12C): > 100 µM (inactive); GI50 (SNB-19): > 100 µM (inactive); GI50 (SNB-75): > 100 µM (inactive); GI50 (SW-620): 58.3 µM (inactive); GI50 (T47D): 46.3 µM (inactive); GI50 (TK-10): 30.3 µM (inactive); GI50 (U-251): 60.4 µM (inactive); GI50 (UACC-257): 13.7 µM (inactive); GI50 (UACC-62): > 100 µM (inactive); GI50 (UO-31): 65.8 µM (inactive)

What does the source list for `O=c1c2ccccc2nc2n1CCc1c-2[nH]c2ccc(Br)cc12`?
GI50 (786-0): 31.8 µM (inactive); GI50 (A498): > 100 µM (inactive); GI50 (A549): 43.8 µM (inactive); GI50 (CCRF-CEM): > 100 µM (inactive); GI50 (DU-145): > 100 µM (inactive); GI50 (EKVX): > 100 µM (inactive); GI50 (HCT-116): 48.9 µM (inactive); GI50 (HOP-62): 16.3 µM (inactive); GI50 (HOP-92): 91.2 µM (inactive); GI50 (HT-29): 45.5 µM (inactive); GI50 (Hs-578T): > 100 µM (inactive); GI50 (IGROV-1): > 100 µM (inactive); GI50 (K562): > 100 µM (inactive); GI50 (LOX IMVI): > 100 µM (inactive); GI50 (M14): > 100 µM (inactive); GI50 (MOLT-4): > 100 µM (inactive); GI50 (Malme-3M): > 100 µM (inactive); GI50 (NCI-H226): > 100 µM (inactive); GI50 (NCI-H23): > 100 µM (inactive); GI50 (NCI-H460): > 100 µM (inactive); GI50 (NCI/ADR-RES): > 100 µM (inactive); GI50 (OVCAR-3): > 100 µM (inactive); GI50 (OVCAR-4): 6.43 µM (inactive); GI50 (OVCAR-5): > 100 µM (inactive); GI50 (OVCAR-8): 11.1 µM (inactive); GI50 (RPMI-8226): > 100 µM (inactive); GI50 (SF-295): 8.61 µM (inactive); GI50 (SK-MEL-28): > 100 µM (inactive); GI50 (SK-MEL-5): 46 µM (inactive); GI50 (SNB-19): > 100 µM (inactive); GI50 (SR): > 100 µM (inactive); GI50 (SW-620): 59 µM (inactive); GI50 (UACC-257): > 100 µM (inactive)

Which GI50 (786-0) does the source give for `COC(=O)/C=C(/C=C1/C(C#N)=C(N)N(c2ccc(Cl)cc2)C1(C)/C(=C/C(=O)OC)C(=O)OC)C(=O)OC` (stereo unspecified) here?
Its GI50 is 40.3 µM (inactive).

What about the GI50 (A498) of the same compound?
Its GI50 is 49.5 µM (inactive).

What about the GI50 (ACHN) of the same compound?
Its GI50 is 42.7 µM (inactive).

And the GI50 (CAKI-1)?
The GI50 was > 100 µM (inactive).

What about the GI50 (CCRF-CEM) of the same compound?
The GI50 was 27 µM (inactive).

What about the GI50 (COLO 205) of the same compound?
The GI50 was 25.1 µM (inactive).

What about the GI50 (DU-145) of the same compound?
The GI50 was 60.3 µM (inactive).

What about the GI50 (EKVX) of the same compound?
The GI50 was 46.1 µM (inactive).

What about the GI50 (HCC 2998) of the same compound?
Its GI50 is 82.6 µM (inactive).

What about the GI50 (HCT-116) of the same compound?
The GI50 was 28.9 µM (inactive).

And the GI50 (HCT-15)?
Its GI50 is 23.8 µM.

And the GI50 (HL-60)?
The GI50 was 15.7 µM (inactive).

What about the GI50 (HOP-62) of the same compound?
The GI50 was > 100 µM (inactive).

What about the GI50 (HOP-92) of the same compound?
Its GI50 is 42.3 µM (inactive).

What about the GI50 (HT-29) of the same compound?
Its GI50 is 33.4 µM (inactive).

What about the GI50 (IGROV-1) of the same compound?
The GI50 was 27.6 µM (inactive).

What about the GI50 (K562) of the same compound?
Its GI50 is 20.6 µM (inactive).

What about the GI50 (LOX IMVI) of the same compound?
Its GI50 is 23.9 µM (inactive).

What about the GI50 (M14) of the same compound?
The GI50 was 76.9 µM (inactive).

And the GI50 (MCF7)?
Its GI50 is 78.3 µM (inactive).

And the GI50 (MDA-MB-231)?
Its GI50 is 8.69 µM (inactive).

What about the GI50 (MDA-MB-435) of the same compound?
The GI50 was 52.4 µM (inactive).

What about the GI50 (MDA-N) of the same compound?
The GI50 was 45.1 µM (inactive).

And the GI50 (MOLT-4)?
The GI50 was 23 µM (inactive).

And the GI50 (Malme-3M)?
Its GI50 is 51.2 µM (inactive).

And the GI50 (NCI-H23)?
The GI50 was 42.3 µM (inactive).

And the GI50 (NCI-H460)?
The GI50 was 40.6 µM (inactive).

And the GI50 (NCI-H522)?
The GI50 was 33.2 µM (inactive).

And the GI50 (NCI/ADR-RES)?
The GI50 was 53 µM (inactive).

What about the GI50 (OVCAR-3) of the same compound?
The GI50 was 81.8 µM (inactive).

And the GI50 (OVCAR-4)?
Its GI50 is > 100 µM (inactive).

And the GI50 (OVCAR-5)?
Its GI50 is > 100 µM (inactive).

What about the GI50 (OVCAR-8) of the same compound?
The GI50 was 33.5 µM (inactive).

What about the GI50 (PC-3) of the same compound?
The GI50 was 34.6 µM (inactive).

What about the GI50 (RPMI-8226) of the same compound?
Its GI50 is 24.7 µM (inactive).

And the GI50 (SF-268)?
Its GI50 is > 100 µM (inactive).

And the GI50 (SF-295)?
Its GI50 is 53.1 µM (inactive).

And the GI50 (SF-539)?
Its GI50 is > 100 µM (inactive).

What about the GI50 (SK-MEL-28) of the same compound?
The GI50 was > 100 µM (inactive).

And the GI50 (SK-MEL-2)?
The GI50 was > 100 µM (inactive).

And the GI50 (SK-OV-3)?
The GI50 was 52.5 µM (inactive).

What about the GI50 (SN12C) of the same compound?
Its GI50 is 35.8 µM (inactive).

And the GI50 (SNB-19)?
The GI50 was > 100 µM (inactive).

And the GI50 (SNB-75)?
The GI50 was 20.5 µM (inactive).

What about the GI50 (SR) of the same compound?
The GI50 was 29.6 µM (inactive).

What about the GI50 (SW-620) of the same compound?
Its GI50 is 32.7 µM (inactive).

What about the GI50 (T47D) of the same compound?
The GI50 was 49.1 µM (inactive).

And the GI50 (TK-10)?
The GI50 was 60.1 µM (inactive).

And the GI50 (U-251)?
Its GI50 is 41.4 µM (inactive).

And the GI50 (UACC-257)?
The GI50 was 63.4 µM (inactive).

What about the GI50 (UACC-62) of the same compound?
Its GI50 is 19.6 µM (inactive).

And the GI50 (UO-31)?
The GI50 was 64.1 µM (inactive).
